# Assays:
# [1] = tested on: gut microbiome; assay: Non pH-controlled anaerobic faecal cultures: gas production; type: cell-based; settings: 6 donors, FIG. 1A
# Procedure: Non pH-controlled, anaerobic, faecal cultures were investigated to evaluate the rate of gas production and cumulative gas production over 24 h in the presence of each test substrate.
# (§1) All carbohydrates were tested in parallel, using the same faecal sample from a healthy donor. Fermentations were repeated using the faecal samples of each of 6 donors. Faeces in the absence of test substrate were used as the negative control in each run.
# [2] = tested on: gut microbiome; assay: pH-controlled anaerobic faecal cultures: organic acid production; type: cell-based; settings: FIG. 3C
# Procedure: pH-controlled, anaerobic, faecal cultures were carried out to evaluate the impact of each test carbohydrate on gut microbiome composition and activity (organic acid production). The test carbohydrates were as follows: Inulin, Fructooligosaccharides (FOS), Xylooligosaccharides (XOS), gentiooligosaccharides (GeOS) and cellobiose.
# as §1
compound,measurement,setting,value
"O=C[C@H](O)[C@@H](O)[C@H](O[C@@H]1O[C@H](CO)[C@@H](O)[C@H](O)[C@H]1O)[C@H](O)CO [Cellobiose, cellobiose]",rate of gas production,[1],significantly higher compared to all test substrates
same,lactate production / accumulation,[2],high levels

# — patent US20260014192A1, “COMPOSITIONS AND USES THEREOF” (Optibiotix Limited, priority 2022, published 2026)
